In US20170246586A1, “PROCESS AND APPARATUS FOR SEPARATING ENTRAINED AMINES FROM A GAS STREAM” (Carbonoro B.V., priority 2014, published 2017):
≈ marks a conversion by molar mass, not a printed value.

How the values were obtained:
[1] = Water solubility (20° C.); type: physicochemical
[2] = 20° C.; cited from earlier work
[3] = J. Sangster, J. Phys. Chem. Ref. Data 18, 111, 1989; cited from earlier work
[4] = amine content of the aqueous phase after phase separation of heated MCA/DMCA mixture in water; type: physicochemical; details: 3 M MCA:DMCA 1:3 wt./wt. in water, phases separated
Protocol: Aqueous samples containing MCA and/or DMCA were analysed by UPLC-MS/MS. The UPLC apparatus was a Waters ACQUITY° system. Injection volume was 3 μl. Mobile phase A: 10 mM ammonium acetate, 0.1 wt. % formic acid in water. Mobile phase B: methanol. Column: ACQUITY UPLC® HSB T3, 1.8 μ2.1×50 mm. Column temperature: 30° C. Gradient (Table 1). The mass spectrometer was an AB SCIEX™ API 3200 apparatus.
A mixture (200 ml) of MCA and DMCA (total amine concentration is 3 M; ratio MCA:DMCA is 1:3 wt./wt.≈1:2.67 mol/mol; total absolute amount MCA is 92.8 g/l; total amount of DMCA is 278.4 g/l) in water was heated at various temperatures for 24 h during which phase separation occurred. The phases were separated and the aqueous phase was analysed for determining the amine content. As can be observed from the data in Table 9, the amount of amine decreases with increasing temperature.

## CN(C)C1CCCCC1 [DMCA, N,N-dimethylcyclohexylamine]
[1]
  solubility: ~480 mM (≈ 61.1 mg/mL)
[2]
  Water solubility: 54 mg/mL

## NC1CCCCC1 [cyclohexylamine]
[3]
  measured log P: 1.49±0.10

## CNC1CCCCC1 [MCA, N-methylcyclohexylamine]
[4]; heated 24 h at 40 ° C.
  amine content of aqueous phase (MCA): 6940 mg/L
[4]; heated 24 h at 50 ° C.
  amine content of aqueous phase (MCA): 5630 mg/L
[4]; heated 24 h at 60 ° C.
  amine content of aqueous phase (MCA): 5090 mg/L
[4]; heated 24 h at 70 ° C.
  amine content of aqueous phase (MCA): 4520 mg/L
